Reference: ChEMBL document CHEMBL1909046, “DrugMatrix in vitro pharmacology data”

How the values were obtained:
[1] = DRUGMATRIX: Glutamate, Kainate radioligand binding (ligand: [3H] Kainic acid); format: cell membranes, Rattus norvegicus, Wistar, Brain, Membrane; settings: Not Active = under 50% inhibition at 10 µM
Androgen receptor [2] = biological target: T1, Androgen receptor (Rattus norvegicus, UniProt P15207); further: in other assays of this panel Not Active means under 50% inhibition at 10 µM
T1 sequence (P15207 whole entry): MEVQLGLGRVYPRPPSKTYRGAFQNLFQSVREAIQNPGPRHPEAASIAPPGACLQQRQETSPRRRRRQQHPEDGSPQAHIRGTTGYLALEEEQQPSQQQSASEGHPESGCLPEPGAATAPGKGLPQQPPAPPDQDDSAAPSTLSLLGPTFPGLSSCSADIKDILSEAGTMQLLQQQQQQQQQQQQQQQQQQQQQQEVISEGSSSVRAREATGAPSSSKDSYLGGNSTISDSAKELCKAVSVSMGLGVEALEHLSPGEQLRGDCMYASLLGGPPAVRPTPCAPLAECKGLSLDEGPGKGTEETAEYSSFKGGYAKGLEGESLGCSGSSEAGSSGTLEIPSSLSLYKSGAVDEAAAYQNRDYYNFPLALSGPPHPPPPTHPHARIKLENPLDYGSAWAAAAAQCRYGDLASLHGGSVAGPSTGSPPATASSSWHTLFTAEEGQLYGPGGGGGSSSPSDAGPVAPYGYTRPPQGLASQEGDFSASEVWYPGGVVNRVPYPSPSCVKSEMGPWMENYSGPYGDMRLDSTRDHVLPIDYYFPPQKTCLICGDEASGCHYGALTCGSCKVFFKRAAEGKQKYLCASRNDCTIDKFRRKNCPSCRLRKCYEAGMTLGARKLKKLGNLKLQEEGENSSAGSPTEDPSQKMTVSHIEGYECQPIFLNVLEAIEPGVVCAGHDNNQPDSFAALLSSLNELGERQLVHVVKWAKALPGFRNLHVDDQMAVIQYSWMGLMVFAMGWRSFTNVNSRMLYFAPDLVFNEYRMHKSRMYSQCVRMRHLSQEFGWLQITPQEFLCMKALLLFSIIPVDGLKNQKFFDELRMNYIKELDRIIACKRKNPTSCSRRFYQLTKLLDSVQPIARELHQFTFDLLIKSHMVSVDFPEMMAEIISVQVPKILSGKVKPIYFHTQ

Cytochrome P450 2C9 = Cytochrome P450 2C9 (Homo sapiens, UniProt P11712); further: in other assays of this panel Not Active means under 50% inhibition at 10 µM
Androgen receptor [3] = biological target: T1, Androgen receptor; remark: listed apart in the source
Cytochrome P450 2D6 = Cytochrome P450 2D6 (Homo sapiens, UniProt P10635); further: in other assays of this panel Not Active means under 50% inhibition at 10 µM
Cytochrome P450 2C19 = Cytochrome P450 2C19 (Homo sapiens, UniProt P33261); further: in other assays of this panel Not Active means under 50% inhibition at 10 µM
Cytochrome P450 1A2 = biological target: T2, Cytochrome P450 1A2 (Homo sapiens, UniProt P05177); further: in other assays of this panel Not Active means under 50% inhibition at 10 µM
T2 sequence (P05177 whole entry): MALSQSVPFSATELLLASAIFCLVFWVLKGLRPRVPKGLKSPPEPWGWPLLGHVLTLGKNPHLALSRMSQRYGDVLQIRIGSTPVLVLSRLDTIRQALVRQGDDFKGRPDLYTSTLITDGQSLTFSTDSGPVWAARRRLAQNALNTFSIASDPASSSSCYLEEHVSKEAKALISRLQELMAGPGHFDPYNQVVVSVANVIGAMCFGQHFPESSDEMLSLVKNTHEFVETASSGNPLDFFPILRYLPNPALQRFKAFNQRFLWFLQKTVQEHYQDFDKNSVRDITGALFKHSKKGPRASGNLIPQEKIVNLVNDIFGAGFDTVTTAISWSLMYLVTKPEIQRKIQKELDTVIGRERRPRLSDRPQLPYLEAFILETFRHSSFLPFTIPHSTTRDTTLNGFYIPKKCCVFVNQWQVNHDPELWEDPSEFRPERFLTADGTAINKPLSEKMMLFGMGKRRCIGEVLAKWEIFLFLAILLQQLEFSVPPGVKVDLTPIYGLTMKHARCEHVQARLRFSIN

Glycine receptor = Glycine receptor (Rattus norvegicus, UniProt P07727+P20781+P22771+P24524); format: cell membranes, Wistar, Spinal cord, Membrane; further: in other assays of this panel Not Active means under 50% inhibition at 10 µM
Chain of Glycine receptor (P22771 whole entry): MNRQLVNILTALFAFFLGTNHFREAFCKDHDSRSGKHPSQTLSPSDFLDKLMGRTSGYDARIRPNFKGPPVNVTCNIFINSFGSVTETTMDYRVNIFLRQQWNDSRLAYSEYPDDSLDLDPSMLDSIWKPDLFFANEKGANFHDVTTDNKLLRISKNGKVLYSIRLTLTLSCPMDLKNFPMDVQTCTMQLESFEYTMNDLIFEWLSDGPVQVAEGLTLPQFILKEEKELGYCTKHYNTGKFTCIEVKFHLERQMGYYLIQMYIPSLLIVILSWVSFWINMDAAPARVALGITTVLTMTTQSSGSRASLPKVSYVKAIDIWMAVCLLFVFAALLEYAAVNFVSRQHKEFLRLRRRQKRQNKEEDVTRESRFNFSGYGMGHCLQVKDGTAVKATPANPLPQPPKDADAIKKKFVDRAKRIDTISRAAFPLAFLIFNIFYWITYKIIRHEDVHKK
Chain of Glycine receptor (P24524 whole entry): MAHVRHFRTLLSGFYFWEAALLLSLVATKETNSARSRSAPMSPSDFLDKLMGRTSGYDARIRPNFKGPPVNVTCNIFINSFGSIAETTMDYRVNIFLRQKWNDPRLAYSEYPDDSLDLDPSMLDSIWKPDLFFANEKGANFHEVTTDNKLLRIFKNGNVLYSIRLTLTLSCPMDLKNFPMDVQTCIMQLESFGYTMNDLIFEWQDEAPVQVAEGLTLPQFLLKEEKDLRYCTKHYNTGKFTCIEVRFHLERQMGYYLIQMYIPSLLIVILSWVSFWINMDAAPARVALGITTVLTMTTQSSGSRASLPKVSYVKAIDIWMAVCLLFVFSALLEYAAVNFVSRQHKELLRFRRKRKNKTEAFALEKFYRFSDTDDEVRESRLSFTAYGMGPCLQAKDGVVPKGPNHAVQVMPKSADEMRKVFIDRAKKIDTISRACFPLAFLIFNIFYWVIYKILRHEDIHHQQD
Chain of Glycine receptor (P07727 whole entry): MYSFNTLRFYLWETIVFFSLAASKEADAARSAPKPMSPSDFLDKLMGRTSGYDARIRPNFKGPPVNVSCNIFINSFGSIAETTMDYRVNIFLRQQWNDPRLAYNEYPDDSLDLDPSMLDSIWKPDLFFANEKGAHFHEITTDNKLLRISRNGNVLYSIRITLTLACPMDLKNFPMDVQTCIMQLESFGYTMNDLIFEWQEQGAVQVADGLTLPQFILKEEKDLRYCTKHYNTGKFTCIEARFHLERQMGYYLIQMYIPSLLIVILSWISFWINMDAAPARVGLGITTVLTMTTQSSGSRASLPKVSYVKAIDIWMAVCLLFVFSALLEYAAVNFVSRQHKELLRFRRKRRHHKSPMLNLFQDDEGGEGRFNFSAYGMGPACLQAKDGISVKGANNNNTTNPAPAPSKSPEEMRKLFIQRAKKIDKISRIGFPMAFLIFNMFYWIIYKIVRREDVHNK
Chain of Glycine receptor (P20781 whole entry): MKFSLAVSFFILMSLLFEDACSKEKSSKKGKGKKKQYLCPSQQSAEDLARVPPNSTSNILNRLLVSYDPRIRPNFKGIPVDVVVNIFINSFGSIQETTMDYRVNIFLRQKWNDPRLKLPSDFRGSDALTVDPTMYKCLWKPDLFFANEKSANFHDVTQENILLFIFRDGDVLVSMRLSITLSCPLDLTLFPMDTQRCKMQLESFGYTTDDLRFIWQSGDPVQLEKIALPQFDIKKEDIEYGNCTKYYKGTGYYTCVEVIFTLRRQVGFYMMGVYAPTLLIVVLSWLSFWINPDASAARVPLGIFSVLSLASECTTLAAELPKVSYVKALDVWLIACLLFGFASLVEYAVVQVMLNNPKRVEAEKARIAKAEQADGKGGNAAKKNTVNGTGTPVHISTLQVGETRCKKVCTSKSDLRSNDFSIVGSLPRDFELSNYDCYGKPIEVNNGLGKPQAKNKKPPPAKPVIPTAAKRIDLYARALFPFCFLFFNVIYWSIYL

Chain of Cytochrome P450 2D6 (P10635 whole entry): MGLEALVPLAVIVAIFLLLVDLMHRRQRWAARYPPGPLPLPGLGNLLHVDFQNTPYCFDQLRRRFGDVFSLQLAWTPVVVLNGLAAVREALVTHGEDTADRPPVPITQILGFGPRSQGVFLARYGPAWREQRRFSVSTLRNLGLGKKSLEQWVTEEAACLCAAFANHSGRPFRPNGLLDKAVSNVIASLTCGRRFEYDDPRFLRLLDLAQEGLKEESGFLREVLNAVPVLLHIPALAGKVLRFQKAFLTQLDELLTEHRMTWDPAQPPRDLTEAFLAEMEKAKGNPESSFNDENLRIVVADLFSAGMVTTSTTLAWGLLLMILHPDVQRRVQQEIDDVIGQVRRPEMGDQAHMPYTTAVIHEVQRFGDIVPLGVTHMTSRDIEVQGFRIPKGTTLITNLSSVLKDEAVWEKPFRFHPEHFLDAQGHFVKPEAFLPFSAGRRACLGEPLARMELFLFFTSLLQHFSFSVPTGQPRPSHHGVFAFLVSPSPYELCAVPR
Chain of Cytochrome P450 2C9 (P11712 whole entry): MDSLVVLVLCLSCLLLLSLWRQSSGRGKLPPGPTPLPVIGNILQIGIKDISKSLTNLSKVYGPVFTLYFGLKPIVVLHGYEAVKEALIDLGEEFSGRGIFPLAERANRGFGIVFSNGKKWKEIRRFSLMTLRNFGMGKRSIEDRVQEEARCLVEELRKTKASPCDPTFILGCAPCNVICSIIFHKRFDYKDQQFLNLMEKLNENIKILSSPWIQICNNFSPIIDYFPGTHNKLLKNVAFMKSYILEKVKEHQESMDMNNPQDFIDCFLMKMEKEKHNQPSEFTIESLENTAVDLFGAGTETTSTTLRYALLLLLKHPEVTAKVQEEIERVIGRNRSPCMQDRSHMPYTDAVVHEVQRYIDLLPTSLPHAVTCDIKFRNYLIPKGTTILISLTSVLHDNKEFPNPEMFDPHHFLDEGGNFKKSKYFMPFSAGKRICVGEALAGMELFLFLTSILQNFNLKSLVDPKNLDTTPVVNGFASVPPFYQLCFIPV
Chain of Cytochrome P450 2C19 (P33261 whole entry): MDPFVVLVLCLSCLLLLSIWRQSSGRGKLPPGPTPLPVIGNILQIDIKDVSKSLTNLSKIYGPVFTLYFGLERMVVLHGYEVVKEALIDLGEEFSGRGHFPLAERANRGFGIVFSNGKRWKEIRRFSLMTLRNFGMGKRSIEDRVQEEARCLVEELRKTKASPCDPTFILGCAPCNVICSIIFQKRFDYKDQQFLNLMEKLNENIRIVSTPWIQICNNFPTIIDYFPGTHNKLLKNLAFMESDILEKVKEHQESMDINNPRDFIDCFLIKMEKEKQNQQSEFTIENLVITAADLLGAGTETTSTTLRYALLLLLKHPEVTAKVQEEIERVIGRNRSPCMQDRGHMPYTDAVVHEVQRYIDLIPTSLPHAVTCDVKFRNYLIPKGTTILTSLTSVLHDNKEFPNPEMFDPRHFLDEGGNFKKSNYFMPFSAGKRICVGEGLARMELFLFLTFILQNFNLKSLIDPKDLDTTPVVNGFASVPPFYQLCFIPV

CCCCC(=O)N(Cc1ccc(-c2ccccc2-c2nnn[nH]2)cc1)[C@H](C(=O)O)C(C)C
IC50 [1]: Not Active | Ki [1]: Not Active

O=C(O)COc1ccc(C(=O)c2cccs2)c(Cl)c1Cl
IC50 [1]: Not Active | Ki [1]: Not Active | IC50 (Androgen receptor [2]): Not Active

C[C@@](Cc1ccc(O)c(O)c1)(NN)C(=O)O.O [CARBIDOPA]
IC50 [1]: Not Active | Ki [1]: Not Active

O=C(O)CCCCC1CCSS1 (stereo not drawn) [LIPOIC ACID, ALPHA]
IC50 [1]: Not Active | Ki [1]: Not Active

Clc1ccc(COC(Cn2ccnc2)c2ccc(Cl)cc2Cl)c(Cl)c1 (configuration not stated) [MICONAZOLE]
IC50 (Cytochrome P450 2C9): 200 nM | IC50 (Androgen receptor [3]): 7090 nM | Ki (Androgen receptor [3]): 4730 nM | IC50 (Cytochrome P450 2D6): 1000 nM

Oc1ccc2c3c1O[C@H]1[C@@H](O)CC[C@@]4(O)[C@@H](C2)N(CC2CCC2)CC[C@]314 [NALBUPHINE]
IC50 (Androgen receptor [2]): Not Active

C[C@]12C=CC(=O)C=C1CC[C@@H]1[C@@H]2C(=O)C[C@@]2(C)[C@H]1CC[C@]2(O)C(=O)CO [PREDNISONE]
IC50 [1]: Not Active | Ki [1]: Not Active

COC(=O)[C@H]1[C@H]2C[C@@H]3c4[nH]c5cc(OC)ccc5c4CCN3C[C@H]2C[C@@H](OC(=O)c2cc(OC)c(OC)c(OC)c2)[C@@H]1OC [RESERPINE]
IC50 [1]: Not Active | Ki [1]: Not Active

O=C(O)c1ccccc1O [SALICYLIC ACID]
IC50 [1]: Not Active | Ki [1]: Not Active

C[S+]([O-])c1ccc(-c2nc(-c3ccncc3)c(-c3ccc(F)cc3)[nH]2)cc1 (configuration not stated) [SB-203580]
IC50 (Cytochrome P450 2C19): 800 nM | IC50 (Cytochrome P450 2C9): 1000 nM | IC50 (Androgen receptor [2]): Not Active | IC50 (Cytochrome P450 2D6): 2000 nM | IC50 (Cytochrome P450 1A2): 2000 nM

CC1CCC(NC(=O)N(CCCl)N=O)CC1 (configuration not stated) [SEMUSTINE]
IC50 [1]: Not Active | Ki [1]: Not Active

O=C1C[C@@H]2OCC=C3CN4CC[C@]56c7ccccc7N1[C@H]5[C@H]2[C@H]3C[C@H]46 [STRYCHNINE]
IC50 [1]: Not Active | Ki [1]: Not Active | IC50 (Glycine receptor): 8.29 nM | Ki (Glycine receptor): 4.69 nM

C[N+](C)(C)CCOC(=O)CCC(=O)OCC[N+](C)(C)C.[Cl-].[Cl-] [SUCCINYLCHOLINE CHLORIDE]
IC50 [1]: Not Active | Ki [1]: Not Active

Nc1ccc(S(=O)(=O)NC(=O)c2ccccc2)cc1 [SULFABENZAMIDE]
IC50 [1]: Not Active | Ki [1]: Not Active

CCCCCCCCNC(C)C(O)c1ccc(SC(C)C)cc1 (configuration not stated) [SULOCTIDIL]
IC50 [1]: Not Active | Ki [1]: Not Active | IC50 (Androgen receptor [2]): Not Active

O=c1[nH]c(=O)n(C2CCCO2)cc1F (configuration not stated) [TEGAFUR]
IC50 [1]: Not Active | Ki [1]: Not Active

CC(=N)S [THIOACETAMIDE]
IC50 [1]: Not Active | Ki [1]: Not Active

Cc1ccc(C(=O)c2ccc(CC(=O)O)n2C)cc1 [TOLMETIN]
IC50 [1]: Not Active | Ki [1]: Not Active | IC50 (Androgen receptor [2]): Not Active

CC(=O)OCC(COC(C)=O)OC(C)=O [TRIACETIN]
IC50 [1]: Not Active | Ki [1]: Not Active

CN1CCN(CCCN2c3ccccc3Sc3ccc(C(F)(F)F)cc32)CC1 [TRIFLUOPERAZINE]
IC50 [1]: Not Active | Ki [1]: Not Active

TRANSPLATIN
IC50 [1]: Not Active | Ki [1]: Not Active | IC50 (Androgen receptor [2]): Not Active | Ki (Androgen receptor [2]): Not Active

ZIRCONIUM(IV) CHLORIDE
IC50 [1]: Not Active | Ki [1]: Not Active | IC50 (Androgen receptor [2]): Not Active | Ki (Androgen receptor [2]): Not Active
